Where “and” joins values, the source holds several entries; their conditions need not be identical. Equal entries are not always repeated. Where two headings read alike, the source gives them in different places.
Legend:
[1] = system: test population of animals; conditions: for LD₅₀: Table A, species and unit not given; for Safety Factor: in vivo
[2] = Dose needed to lower blood or plasma T₁ to 200 msec at 0.15 T
[3] = Procedure: Three buffers were tested for suitability.
One part of the solution of the title compound, synthesized according to Example 35, was added to one part of a US National Bureau of Standard buffer solution for pH 4.0 (American Scientific Products; Phthalate reference buffer).

[4] = Paramagnetic relaxation properties in water at 10 MHz (0.15T), RADX spin analyzer; format: physicochemical; conditions: 10 MHz (0.15T)
Procedure: The paramagnetic relaxation properties of [manganese(II)·(H₂O)₂·(L-alanine)₂]⁺²(Cl₂)⁻² in water were measured at 10 MHz (0.15T) with a spin analyzer (RADX; Houston, TX) at 37°C. After thermal equilibrium, the spin-lattice (T₁) and spin-spin (T₂) relaxation values were measured in triplicate.
The paramagnetic relaxation of the title compound in water was measured at 10 MHz (0.15T) with a spin analyzer (RADX; Houston, TX). After thermal equilibrium, the spin-lattice (T₁) and spin-spin (T₂) relaxation values were measured.
Relaxivity was measured at 10 MHz (0.15T) as described in Example 10.
The relaxivity of the title compound was performed at 0.15 T (10 MHz) with a RADX Spin Analyzer (Houston, TX) at 37°C.

[5] = system: Rats; conditions: IV, standard conditions, 10 animals per dosage group
Text: The doses were 0.3, 0.5, and 0.8 mmole/kg. 10 Animals were used in each dosage group.

[6] = system: New Zealand white rabbit
Procedure: This solution was infused into a New Zealand white rabbit (3.1 kg wt.) at 0.065 mmole/kg/min for 5 min to achieve a total dose of […]. […] 15 Min after the infusion, the rabbit was sacrificed by lethal pentobarbitol injection, and the heart and liver were removed. Samples of these organs were tested for relaxation time at 0.15 T with a RADX spectrometer (Houston, TX).
At a lower dose level (0.10 mmole/kg), the effects of a rapid bolus injection (10 sec) or a slow infusion (over 5 min) were tested in two New Zealand white rabbits. 15 Min after the end of the infusion or injection, the animals were sacrificed and T₁ and T₂ values were measured on 4-16 individual samples of kidney, liver and heart tissue.

[7] = Paramagnetic relaxation properties in human plasma at 37°C; format: physicochemical
[8] = Stability of aqueous solutions after addition of a NaOH solution; conditions: ratio of OH⁻ to compound of 0.2; 161 mM (glycine) or 167 mM (gluconate) aqueous solution
Procedure: NMR contrast agents must be stable in solution under adverse conditions to be effective as pharmaceutical agents.
One ml of a 161 mM solution (initial pH 5) was placed in a test tube at 19°C. Sodium hydroxide (0.032 ml; 1 N) was added to the solution, giving a ratio of OH⁻ to compound of 0.2.
[Manganese(II)·(H₂O)₂·(gluconate)₂]⁺²(Cl₂)⁻² was prepared according to the procedure of Example 24. Deionized water was added to form a 167 mM clear solution. One mole equivalent of sodium hydroxide solution was added to five mole equivalents of the [manganese(II)·(H₂O)₂·(gluconate)₂]⁺²(Cl₂)⁻² solution, giving a ratio of OH⁻ to compound of 0.20.

[9] = Plasma clearance: plasma T₁ and T₂ times after injection; format: in vivo; conditions: rabbit, 0.1 mmole/kg; for plasma T₁ / plasma T₂: 0.15 T
Procedure: A dose of 0.1 mmole/kg of GdDTPA was injected into a rabbit and blood samples were drawn at 10 min intervals for 50 min. The blood was centrifuged, and the plasma T₁ and T₂ times were measured at 0.15 T with a RADX PROTON SPIN ANALYZER (Houston, TX).

[10] = system: New Zealand white rabbits; conditions: rabbit, 1.5 T
Procedure: A General Electric Signa Magnetic Resonance Imaging System, operating at 1.5 T, and using a knee surface coil was used. New Zealand white rabbits (ca. 2.5 kg wt.) were used for imaging. […] With these instrument settings, an image could be acquired in about 1.3 min. Images of the rabbit kidney and liver were taken before injection and at 1, 3, 6, 8, 12, 16, 21, 26, 36, 46, and 56 min intervals after injection.
Schematic drawings of the images before injection and at intervals of 10 and 60 minutes are show in Fig. 1, 2 and 3, respectively.

[11] = dose needed to lower T₁ from 1500 to 200 msec at 0.15 T, unit not given
[12] = one part + one part carbonate pH reference buffer pH 10.0, the pH was 10.45
[13] = one part + one part phosphate pH reference buffer pH 7.0, the pH was 7.63
[14] = one part solution + one part phthalate reference buffer pH 4.0, the pH was 4.69
[15] = 0.10 mmole/kg, bolus (10 sec), 15 min after, mean of samples
[16] = 0.10 mmole/kg, slow infusion (over 5 min), 15 min after, mean of samples
[17] = infusion 0.065 mmole/kg/min for 5 min, total dose 0.31 mole/kg, 15 min after infusion, 0.15 T
[18] = 37°C, repeat measurement 80 minutes later
[19] = 0.99 mM solution in water, 37°C, triplicate, mean +/- SD

MnEDTA [reference compound]
LD₅₀ [1]: 5.0
Safety Factor [1]: 38
Plasma Dose, T₁ = 200 [2, 11]: 0.13

CC(=O)[O-].CC(=O)[O-].NCC(=O)O.NCC(=O)O.O.O.[Mn+2] [[Manganese(II)·(H₂O)₂·(Glycine)₂]Diacetate]
appearance of the solution [3, 12]: remained clear
change of relaxivity over a 12 hour time period [3, 12]: the relaxivity did not change
appearance of the solution [3, 13]: remained clear
change of relaxivity over a 12 hour time period [3, 13]: the relaxivity did not change
appearance of the solution [3, 14]: remained clear
change of relaxivity over a 12 hour time period [3, 14]: the relaxivity did not change
Relaxivity (mM⁻¹sec⁻¹) Spin-Lattice ([4]; 1 mM solution in water): 8.40 mM⁻¹ s⁻¹
Relaxivity (mM⁻¹sec⁻¹) Spin-Spin ([4]; 1 mM solution in water): 34.5 mM⁻¹ s⁻¹

CC(=O)[O-].CC(=O)[O-].NCC(=O)O.NCC(=O)O.[Mn+2] [Mn(acetate)₂-bis-glycine]
LD₅₀ [1]: 0.7
Safety Factor [1]: 70
Plasma Dose, T₁ = 200 [2]: 0.10

Manganese chloride [MnCl₂]
Plasma Dose, T₁ = 200 [2, 11]: 0.01

NCC(=O)O.NCC(=O)O.O.O.[Cl-].[Cl-].[Mn+2] [[Manganese(II)·(H₂O)₂·(glycine)₂]⁺²(Cl₂)⁻²]
LD₅₀ [5]: 0.70 mmol/kg
Heart T₁, Bolus Injection, Mean [6, 15]: 156 ms
Heart T₂, Bolus Injection, Mean [6, 15]: 40 ms
Kidney T₁, Bolus Injection, Mean [6, 15]: 109 ms
Kidney T₂, Bolus Injection, Mean [6, 15]: 40 ms
Liver T₁, Bolus Injection, Mean [6, 15]: 51 ms
Liver T₂, Bolus Injection, Mean [6, 15]: 18 ms
Liver T₂, Infusion ([6]; 0.10 mmole/kg, slow infusion (over 5 min), 15 min after, individual tissue samples): 15 msec (2×) and 11 msec and 20 msec
Heart T₁, Infusion, Mean [6, 16]: 179 ms
Heart T₂, Infusion, Mean [6, 16]: 41 ms
Kidney T₁, Infusion, Mean [6, 16]: 120 ms
Kidney T₂, Infusion, Mean [6, 16]: 45 ms
Liver T₁, Infusion, Mean [6, 16]: 39 ms
Liver T₂, Infusion, Mean [6, 16]: 15 ms
tolerance of the infusion ([6]; infusion 0.065 mmole/kg/min for 5 min, total dose 0.31 mole/kg): tolerated the infusion without outward signs of a pharmacologic or toxicologic effect
heart T₁ [6, 17]: 45 ms
heart T₂ [6, 17]: 21 ms
liver T₁ [6, 17]: 19 ms
liver T₂ [6, 17]: 10 ms
T₂ value ([7]; 94 µM final concentration, 37°C): 184 ± 12 ms
T₁ value ([7]; 94 µM final concentration, 37°C, triplicate): 227 ± 3 ms
R₁ ([7]; 37°C): 46.9 mM⁻¹ s⁻¹
R₂ ([7]; 37°C): 57.8 mM⁻¹ s⁻¹
T₁ changed by (repeat measurement) [7, 18]: 2%
T₂ changed by (repeat measurement) [7, 18]: 2%
T₂ relaxivity in plasma, fold greater than GdDTPA ([7]; versus GdDTPA): 12.0 fold
T₁ relaxivity in plasma, fold greater than GdDTPA ([7]; versus gadolinium diethylenetriaminepentaacetic acid chelate (GdDTPA)): 9.8 fold
spin-lattice (T₁) relaxation value [4, 19]: 109 ± 5 ms
spin-spin (T₂) relaxation value [4, 19]: 26 ± 1 ms
millimolar relaxivity for T₁ ([4]; in water, calculated from T₁ and concentration): 9.27 mM⁻¹ s⁻¹
millimolar relaxivity for T₂ ([4]; in water, calculated from T₂ and concentration): 38.9 mM⁻¹ s⁻¹
stability after addition of a NaOH solution [8]: the solution remained clear with no discoloration or formation of a precipitate
time for which the plasma T₁ was maintained below 250 [9]: 40 min
plasma T₁ ([9]; 0 min (baseline)): 1600 ms
plasma T₂ ([9]; 0 min (baseline)): 447 ms
plasma T₁ ([9]; 10 min): 58 ms
plasma T₂ ([9]; 10 min): 42 ms
plasma T₁ ([9]; 20 min): 102 ms
plasma T₂ ([9]; 20 min): 65 ms
plasma T₁ ([9]; 30 min): 156 ms
plasma T₂ ([9]; 30 min): 110 ms
plasma T₁ ([9]; 40 min): 224 ms
plasma T₂ ([9]; 40 min): 156 ms
plasma T₁ ([9]; 50 min): 259 ms
plasma T₂ ([9]; 50 min): 180 ms
plasma T₁ ([9]; 60 min): 323 ms
plasma T₂ ([9]; 60 min): 205 ms
plasma T₁ ([9]; 70 min): 453 ms
plasma T₂ ([9]; 70 min): 257 ms
plasma T₁ ([9]; 80 min): 550 ms
plasma T₂ ([9]; 80 min): 293 ms
plasma T₁ ([9]; 90 min): 625 ms
plasma T₂ ([9]; 90 min): 295 ms
liver parenchyma image intensity ([10]; image after one hour (60 min)): returned to normal intensity
enhancement of the liver and parenchyma in the image ([10]; one min after injection, doses of 10 and 20 µmole/kg, Spin Echo TR = 300 msec, TE = 20 msec): over 100%
